# Tests used:
# Format in all cases: in vivo, human
# Total lipid panel = assay: Total lipid panel
# Experimental: (§1) Sixty subjects were consented for this study. This study was conducted in the Integrative Physiology of Aging Laboratory and the Clinical and Translational Research Center (CTRC) at the University of Colorado Boulder. All blood assays were performed at either Boulder Community Hospital or the University of Colorado Denver Anschutz Medical Campus CTRC Core Laboratory. All testing sessions were performed after an overnight fast and 24-hour abstention from exercise and alcohol consumption. All subjects refrained from all prescription medications for 24 hours and over the counter medications for 48 hours prior to all testing visits.
# (§2) Clinical laboratory values were obtained from blood samples collected at the end of each intervention phase in 21 subjects. Complete blood work was not obtained in three subjects due to a failed catheterization during at least one of the testing phases.
# [1] = system: healthy middle-aged and older adults; assay: Resting brachial artery blood pressure
# Experimental: Resting brachial artery blood pressure and heart rate were measured in the seated position after 5 minutes of rest in a quiet examination room using a semi-automated blood pressure device (DYNAMAP™ XL, Johnson & Johnson, Arlington, Tex., USA). Measurements were made multiple times from the non-dominant arm, with 2 minutes of quiet rest between recordings. Repeat measurements were made until 3 blood pressure values were obtained that were within 5 mmHg of one another. These values were then averaged to determine resting systolic and diastolic blood pressure, pulse pressure, mean arterial pressure, and resting heart rate. Baseline blood pressure values were obtained using the above-described protocol on two separate testing days prior to the initiation of the first intervention arm and were averaged to determine baseline blood pressure status (i.e., normotensive vs. pre-hypertensive) for subsequent analyses.
# To determine if this effect was greater in subjects with elevated baseline blood pressure, subjects were characterized as either normotensive (SBP <120 mmHg; DBP <80 mmHg) or pre-hypertensive (SBP 120-139 mmHg; DBP 80-89 mmHg) based on their average baseline blood pressure obtained on two separate days. The inventors observed a near significant interaction between treatment condition (NR vs. placebo) and blood pressure status for systolic blood pressure (FIG. 3A; P=0.07), with no effect on diastolic pressure (FIG. 3C), and […] on mean arterial pressure (FIG. 3E; P=0.08). […] Diastolic blood pressure also tended to be reduced in prehypertensive individuals; however this effect was lower in magnitude (3 mmHg reduction) and approached significance (FIG. 3D; P=0.09).
# [2] = Complete blood count (clinical laboratory values at end of each intervention phase)
# Experimental: as §1, §2
# [3] = end of 6-week phase, mean ± SEM, 21 subjects
# [4] = all subjects, NR condition compared with placebo, P<0.05
# [5] = pre-hypertensive individuals, P<0.01
# [6] = NR condition, end of 6-week phase, mean ± SEM, 21 subjects
# [7] = NR condition, end of 6-week phase, mean ± SEM, 21 subjects, *P < 0.05 vs. placebo
smiles,measurement,setting,value
"NC(=O)c1ccc[n+]([C@@H]2O[C@H](CO)[C@@H](O)[C@H]2O)c1 [NR, nicotinamide riboside]",Difference between treatment conditions for blood lipid profiles,Total lipid panel; NR vs placebo,No meaningful differences
same,HDL-C,Total lipid panel; [3],60 ± 5 mg/dL
same,LDL-C,Total lipid panel; [3],94 ± 5 mg/dL
same,N-HDL-C,Total lipid panel; [3],111 ± 6 mg/dL
same,Total cholesterol,Total lipid panel; [3],171 ± 6 mg/dL
same,Triglycerides,Total lipid panel; [3],90 ± 14 mg/dL
same,VLDL-C,Total lipid panel; [3],17 ± 3 mg/dL
same,Mean arterial blood pressure,[1]; all subjects,moderately lowered
same,Resting diastolic blood pressure,[1]; [4],significantly reduced
same,Resting systolic blood pressure,[1]; [4],significantly reduced
same,"Pre-hypertension, hypertension, and arterial stiffness","[1]; human subjects, 500 mg twice daily, within 6 weeks or less",significant improvements
same,Blood pressure,[1]; normotensive individuals,no effect
same,Lowering of systolic blood pressure compared with placebo,[1]; [5],8 mmHg
same,Mean (arterial) pressure,[1]; [5],significant reduction
same,Reduction of diastolic blood pressure,"[1]; prehypertensive individuals, P=0.09",3 mmHg
same,HCT,[2]; [6],41.1 ± 0.7%
same,HGB,[2]; [6],13.9 ± 0.2 g/dL
same,MCH,[2]; [6],31.2 ± 0.3 pg
same,MCHC,[2]; [6],33.8 ± 0.2 g/dL
same,MCV,[2]; [6],92.3 ± 0.9 fL
same,RBC,[2]; [6],4.5 ± 0.1 10^6/μL
same,RDW,[2]; [6],13.0 ± 0.2%
same,WBC,[2]; [6],4.3 ± 0.3 10^3/μL
same,basophils absolute,[2]; [6],0.05 ± 0.01 10^3/μL
same,eosinophils absolute,[2]; [6],0.14 ± 0.03 10^3/μL
same,lymphocytes absolute,[2]; [6],1.18 ± 0.08 10^3/μL
same,lymphocytes relative,[2]; [6],29.5 ± 1.7%
same,monocytes absolute,[2]; [6],0.52 ± 0.08 10^3/μL
same,monocytes relative,[2]; [6],10.7 ± 0.6%
same,neutrophils absolute,[2]; [6],2.41 ± 0.19 10^3/μL
same,neutrophils relative,[2]; [6],55.3 ± 1.4%
same,platelet count,[2]; [6],206 ± 14 10^3/μL
same,MPV,[2]; [7],10.7 ± 0.2* fL
same,basophils relative,[2]; [7],1.3 ± 0.2* %
same,eosinophils relative,[2]; [7],2.9 ± 0.5* %
same,Difference between treatment conditions for hematology,[2]; NR vs placebo,No meaningful differences
same,All clinical laboratory values versus normal reference range,"[2]; all clinical laboratory values (Tables 3-5), NR condition",remained within the normal reference range
same,Relevance of changes in mean platelet volume and relative distribution of white blood cell types,"[2]; statistically significant difference between conditions, extremely low effect sizes",physiologically insignificant
